From patent US12391683B2, “Therapeutic compounds and methods” (Actio Biosciences, Inc., priority 2022, dated 2025) come the findings set out here.

Structures are written as SMILES. pEC50, pIC50: −log10 of the molar value.

What all share (format): cell-based
In one experiment the target is T1, TRPC4 channels (Homo sapiens, UniProt Q9UBN4).
T1 construct: expressed in transfected cells; host or cells: HEK293
T1 sequence (Q9UBN4 1-977): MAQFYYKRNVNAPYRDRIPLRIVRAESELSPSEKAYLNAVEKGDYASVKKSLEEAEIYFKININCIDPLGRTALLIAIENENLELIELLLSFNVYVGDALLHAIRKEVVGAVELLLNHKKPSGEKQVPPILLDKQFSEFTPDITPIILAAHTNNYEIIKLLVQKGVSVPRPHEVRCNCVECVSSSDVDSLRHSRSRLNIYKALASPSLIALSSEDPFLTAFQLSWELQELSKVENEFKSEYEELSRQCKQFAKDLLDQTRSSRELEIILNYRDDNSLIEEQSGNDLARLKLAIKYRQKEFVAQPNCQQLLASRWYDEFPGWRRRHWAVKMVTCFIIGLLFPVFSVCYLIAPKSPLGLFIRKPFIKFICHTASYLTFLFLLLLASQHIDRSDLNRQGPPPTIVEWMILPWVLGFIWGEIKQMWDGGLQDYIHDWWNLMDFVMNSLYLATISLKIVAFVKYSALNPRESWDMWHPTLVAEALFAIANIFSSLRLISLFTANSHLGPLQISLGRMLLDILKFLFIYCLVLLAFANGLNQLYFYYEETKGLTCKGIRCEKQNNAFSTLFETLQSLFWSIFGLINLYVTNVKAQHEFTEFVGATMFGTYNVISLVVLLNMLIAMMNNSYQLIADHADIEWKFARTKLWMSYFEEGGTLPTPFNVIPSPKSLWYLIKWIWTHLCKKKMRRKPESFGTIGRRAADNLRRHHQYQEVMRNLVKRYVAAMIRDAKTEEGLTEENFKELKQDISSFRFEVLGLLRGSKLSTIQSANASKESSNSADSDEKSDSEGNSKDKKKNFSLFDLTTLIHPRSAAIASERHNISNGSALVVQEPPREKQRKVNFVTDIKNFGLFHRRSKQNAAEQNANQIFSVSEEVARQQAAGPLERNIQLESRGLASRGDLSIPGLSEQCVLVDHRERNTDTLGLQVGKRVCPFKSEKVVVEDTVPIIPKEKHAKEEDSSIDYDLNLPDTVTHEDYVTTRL
Briefly: TRP Family FLIPR Assay, TRPC4. The following applies: HEK293 cells. How it is done: (§1) The compound of Example 5 was tested for selectivity against a panel of Human TRP family ion channels in a TRP Family FLIPR Assay as described below. • 1. TRPC3 channels (human TRPC3 variant 1 gene, expressed in HEK293 cells). • 2. TRPC4 channels (human TRPC4 gene, expressed in HEK293 cells). • 3. TRPC5 channels (human TRPC5 gene, expressed in HEK293 cells). • 4. TRPC6 channels (human TRPC6 gene, expressed in HEK293 cells). • 5. TRPM2 channels (human TRPM2 gene, transiently expressed in HEK293 cells). • 6. TRPM3 channels (human TRPM3 gene, transiently expressed in HEK293 cells). • 7. TRPM4 channels (human TRPM4 gene, expressed in CHO cells). • 8. […]
(§2) Data acquisition was performed via the FLIPR Control software supplied with the FLIPR System (MDS-AT) and data was analyzed using Microsoft Excel (Microsoft Corp., Redmond, WA) or GraphPad Prism. […]
(§3) [formula] where Base is the response at low concentrations of test article, Max is the maximum response at high concentrations, xhalf the EC50, or IC50, the concentration of test article producing either half-maximal activation or inhibition, and rate is the Hill coefficient. […] No assumptions about the fit parameters was made; the fit parameters were determined by the algorithm.
(§4) The effect of each test article was evaluated at eight (8) concentrations: 0.003, 0.01, 0.03, 0.1, 0.3, 1, 3 and 10 μM, n≤4 wells/concentration). […]

A further experiment has as its target T2, TRPM3 channels (Homo sapiens, UniProt Q9HCF6).
T2 construct: expressed in transfected cells; host or cells: HEK293 (transient)
Briefly: TRP Family FLIPR Assay, TRPM3. The note with it: HEK293 cells (transient). How it is done:
as §1, §2, §3, §4

Another experiment concerns the target T3, TRPM4 channels (Homo sapiens, UniProt Q8TD43).
T3 construct: expressed in transfected cells; host or cells: CHO
The experiment can be described thus: TRP Family FLIPR Assay, TRPM4. The following applies: CHO cells. The method, then: as §1, §2, §3, §4

T3 sequence (Q8TD43 whole entry): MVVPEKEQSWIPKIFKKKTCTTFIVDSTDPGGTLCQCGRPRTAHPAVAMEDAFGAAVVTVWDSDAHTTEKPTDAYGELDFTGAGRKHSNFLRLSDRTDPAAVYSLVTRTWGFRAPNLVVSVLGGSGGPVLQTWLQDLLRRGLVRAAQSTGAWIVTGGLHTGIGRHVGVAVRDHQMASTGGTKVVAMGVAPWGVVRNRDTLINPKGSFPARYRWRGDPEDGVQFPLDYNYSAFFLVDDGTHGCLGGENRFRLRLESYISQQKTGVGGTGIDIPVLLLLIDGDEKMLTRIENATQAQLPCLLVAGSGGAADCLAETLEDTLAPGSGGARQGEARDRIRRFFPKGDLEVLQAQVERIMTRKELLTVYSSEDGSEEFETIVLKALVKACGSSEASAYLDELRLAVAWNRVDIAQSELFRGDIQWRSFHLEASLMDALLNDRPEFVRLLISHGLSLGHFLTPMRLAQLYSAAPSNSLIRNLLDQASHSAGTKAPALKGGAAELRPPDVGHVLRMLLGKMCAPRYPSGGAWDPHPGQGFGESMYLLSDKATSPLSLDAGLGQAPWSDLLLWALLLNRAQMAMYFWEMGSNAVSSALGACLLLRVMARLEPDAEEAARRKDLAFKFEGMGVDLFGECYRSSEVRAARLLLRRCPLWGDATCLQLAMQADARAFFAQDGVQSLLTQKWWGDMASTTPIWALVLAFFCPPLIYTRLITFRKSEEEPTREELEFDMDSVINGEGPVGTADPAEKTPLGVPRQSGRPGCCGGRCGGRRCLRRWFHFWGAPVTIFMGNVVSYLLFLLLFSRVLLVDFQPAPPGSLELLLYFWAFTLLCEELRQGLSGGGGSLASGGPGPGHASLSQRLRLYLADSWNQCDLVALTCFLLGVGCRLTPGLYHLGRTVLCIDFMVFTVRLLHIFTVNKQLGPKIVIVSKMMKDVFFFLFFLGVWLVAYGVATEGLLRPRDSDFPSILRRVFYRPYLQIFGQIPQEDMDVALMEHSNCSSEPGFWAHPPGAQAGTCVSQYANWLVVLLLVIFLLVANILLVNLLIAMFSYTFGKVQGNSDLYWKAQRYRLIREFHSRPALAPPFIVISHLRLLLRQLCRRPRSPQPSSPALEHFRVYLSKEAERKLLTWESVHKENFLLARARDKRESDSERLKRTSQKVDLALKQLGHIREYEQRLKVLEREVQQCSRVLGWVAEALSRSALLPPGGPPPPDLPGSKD
T2 sequence (Q9HCF6 whole entry): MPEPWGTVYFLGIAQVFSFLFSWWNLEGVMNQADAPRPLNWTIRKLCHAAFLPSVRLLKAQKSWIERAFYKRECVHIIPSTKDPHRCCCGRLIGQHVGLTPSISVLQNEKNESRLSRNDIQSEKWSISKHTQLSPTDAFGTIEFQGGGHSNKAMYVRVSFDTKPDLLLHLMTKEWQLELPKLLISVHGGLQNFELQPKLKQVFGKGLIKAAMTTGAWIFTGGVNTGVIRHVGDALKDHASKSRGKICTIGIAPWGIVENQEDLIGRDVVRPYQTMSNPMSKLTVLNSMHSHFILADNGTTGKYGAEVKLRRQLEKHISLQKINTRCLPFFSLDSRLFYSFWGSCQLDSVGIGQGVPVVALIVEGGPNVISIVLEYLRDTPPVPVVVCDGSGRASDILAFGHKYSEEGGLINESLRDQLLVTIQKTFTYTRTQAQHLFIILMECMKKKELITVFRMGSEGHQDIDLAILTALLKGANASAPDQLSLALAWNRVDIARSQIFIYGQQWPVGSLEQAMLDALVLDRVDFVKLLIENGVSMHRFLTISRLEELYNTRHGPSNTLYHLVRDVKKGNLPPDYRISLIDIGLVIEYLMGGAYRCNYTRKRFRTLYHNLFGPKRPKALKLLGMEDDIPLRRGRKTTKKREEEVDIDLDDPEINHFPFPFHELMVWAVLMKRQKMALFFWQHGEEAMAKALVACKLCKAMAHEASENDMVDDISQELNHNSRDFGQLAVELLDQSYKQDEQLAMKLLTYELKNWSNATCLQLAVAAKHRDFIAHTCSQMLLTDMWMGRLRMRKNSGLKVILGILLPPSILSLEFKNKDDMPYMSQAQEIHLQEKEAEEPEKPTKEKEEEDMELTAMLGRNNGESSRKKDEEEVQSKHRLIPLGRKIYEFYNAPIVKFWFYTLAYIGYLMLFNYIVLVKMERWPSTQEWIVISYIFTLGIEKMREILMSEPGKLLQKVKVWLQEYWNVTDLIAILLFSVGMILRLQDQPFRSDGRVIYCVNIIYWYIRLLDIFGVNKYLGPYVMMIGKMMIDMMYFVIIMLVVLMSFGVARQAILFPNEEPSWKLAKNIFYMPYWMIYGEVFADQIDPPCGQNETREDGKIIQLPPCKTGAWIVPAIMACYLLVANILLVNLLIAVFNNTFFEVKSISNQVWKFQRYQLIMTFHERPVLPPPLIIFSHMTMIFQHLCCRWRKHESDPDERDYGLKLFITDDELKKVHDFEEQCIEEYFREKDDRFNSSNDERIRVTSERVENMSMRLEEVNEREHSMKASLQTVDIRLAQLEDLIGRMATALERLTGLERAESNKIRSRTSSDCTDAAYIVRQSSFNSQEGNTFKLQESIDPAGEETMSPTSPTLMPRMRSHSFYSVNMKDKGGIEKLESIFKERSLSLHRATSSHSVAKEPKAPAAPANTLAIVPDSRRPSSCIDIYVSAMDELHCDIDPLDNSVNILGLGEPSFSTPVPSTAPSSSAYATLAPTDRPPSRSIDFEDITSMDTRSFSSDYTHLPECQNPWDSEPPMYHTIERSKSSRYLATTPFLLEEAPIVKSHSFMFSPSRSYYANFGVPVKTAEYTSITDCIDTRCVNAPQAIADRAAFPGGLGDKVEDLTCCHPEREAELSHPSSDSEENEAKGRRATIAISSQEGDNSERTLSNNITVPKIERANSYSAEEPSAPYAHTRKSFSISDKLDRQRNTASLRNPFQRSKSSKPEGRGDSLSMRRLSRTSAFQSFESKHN

For orientation: pEC50 means −log10 of the EC50, conventionally taken in molar units. Broadly, the pIC50 is the negative decadic logarithm of the IC50, by convention in mol/L. For `CC(C)(O)c1cnc(N2C[C@@]3(CC[C@@H](F)[C@](C)(Cn4cnc5ccc(C#N)cc54)C3)OC2=O)cn1` (single isomer, unassigned) [Example 5], the pEC50 on TRPC4 channels (agonist mode, vs EMAX of (−)-Englerin A 30 μM, read-out: EC50 hTRPC4) is less than 5.00; at TRPM3 channels (agonist mode, vs EMAX of pregnenolone 100 μM, read-out: EC50 hTRPM3), less than 5.00; at TRPM4 channels (agonist mode, vs EMAX of A23187 3.3 μM, read-out: EC50 hTRMP4), less than 5.00. Besides, the pIC50 on TRPC4 channels (antagonist mode, activated with 0.5 μM (−)-Englerin A, 0.003-10 μM, read-out: IC50 hTRPC4) was less than 6.00; on TRPM3 channels (antagonist mode, activated with pregnenolone 30 μM, 0.003-10 μM, read-out: IC50 hTRPM3), less than 5.00; on TRPM4 channels (antagonist mode, activated with A23187 10 μM, 0.003-10 μM, read-out: IC50 hTRMP4), less than 5.00.
